According to patent publication US7109214B2, “Substituted cyclopentene compounds” (Grunenthal GmbH, priority 2004, dated 2006):
Where a name gives a salt, the structure may show the parent alone. Read-outs that look alike come from different tables or passages of the source. One block for each molecule: values may come before it.

Key:
CGRP1 receptors = target: T1, CGRP1 receptors (Cavia porcellus, UniProt H0UV86+Q8R4C6); assay: CGRP receptor affinity on isolated, spontaneously beating guinea pig atrium
T1 sequence (H0UV86 23-464): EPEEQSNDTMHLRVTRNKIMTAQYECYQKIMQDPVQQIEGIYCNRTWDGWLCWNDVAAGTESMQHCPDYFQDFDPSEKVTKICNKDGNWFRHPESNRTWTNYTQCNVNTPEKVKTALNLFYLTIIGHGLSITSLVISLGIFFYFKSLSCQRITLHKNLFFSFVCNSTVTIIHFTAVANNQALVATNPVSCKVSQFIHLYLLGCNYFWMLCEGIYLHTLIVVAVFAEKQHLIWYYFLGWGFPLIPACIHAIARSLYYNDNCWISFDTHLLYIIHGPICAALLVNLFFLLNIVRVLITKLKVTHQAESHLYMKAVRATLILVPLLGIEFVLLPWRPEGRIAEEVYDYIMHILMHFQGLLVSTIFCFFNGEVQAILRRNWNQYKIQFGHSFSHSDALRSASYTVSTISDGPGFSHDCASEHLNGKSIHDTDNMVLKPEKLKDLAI
T1 sequence (Q8R4C6 27-148): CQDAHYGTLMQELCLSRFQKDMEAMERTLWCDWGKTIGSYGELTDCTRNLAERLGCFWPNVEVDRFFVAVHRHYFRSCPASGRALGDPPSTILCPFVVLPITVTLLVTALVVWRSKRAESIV
Protocol: J. Physiol. Pharmacol. 75: 671–6,1997. The corresponding literature description is hereby introduced as a reference and is deemed to be part of the disclosure.
The exposure time for each concentration level is 2 minutes.
The validation and investigation of the substituted cyclopentene compounds according to the invention for their antagonistic action proceeded in accordance with the above-described method.

[1] = target: T2, human calcitonin receptor-related receptor (CRLR) and human RAMP1 (Homo sapiens, UniProt O60894+Q16602); assay: GTPγS assay: CGRP-induced [35S]GTPγS incorporation into CHO-K1 membranes; format: biochemical
T2 construct: purchased Euroscreen, Brussels, Belgium; host or cells: CHO-K1 cells (transfected), membranes
T2 sequence (Q16602 23-461): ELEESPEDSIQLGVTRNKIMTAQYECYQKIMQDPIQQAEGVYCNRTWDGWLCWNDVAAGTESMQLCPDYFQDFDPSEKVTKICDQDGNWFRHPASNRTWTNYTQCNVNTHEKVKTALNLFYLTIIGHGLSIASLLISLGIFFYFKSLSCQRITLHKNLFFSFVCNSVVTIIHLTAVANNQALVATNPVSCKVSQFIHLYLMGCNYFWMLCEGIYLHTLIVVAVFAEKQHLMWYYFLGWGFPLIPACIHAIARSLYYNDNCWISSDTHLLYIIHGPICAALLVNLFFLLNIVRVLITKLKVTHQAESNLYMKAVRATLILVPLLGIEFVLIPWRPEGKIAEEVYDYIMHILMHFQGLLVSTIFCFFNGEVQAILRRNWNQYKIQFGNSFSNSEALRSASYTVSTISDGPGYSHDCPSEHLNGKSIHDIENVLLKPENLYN
T2 sequence (O60894 27-148 partner): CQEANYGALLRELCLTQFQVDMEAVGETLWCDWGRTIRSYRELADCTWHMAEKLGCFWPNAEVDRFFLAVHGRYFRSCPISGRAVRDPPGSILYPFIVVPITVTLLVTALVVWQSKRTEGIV
Protocol: The antagonistic action of the substituted cyclopentene compounds according to the invention was determined using this assay.
To this end, membranes from CHO-K1 cells (Euroscreen, Brussels, Belgium), which are transfected with the human calcitonin receptor-related receptor (CRLR, Genbank: U17473) and human receptor-associated modifying protein type 1 (RAMP1, Genbank AJ001014), are first of all rapidly thawed, diluted in 20 mM HEPES, 10 mM NaCl, 10 mM MgCl2, 1 mM EDTA pH 7.4 and resuspended by homogenisation. […] After 30 minutes' incubation at room temperature, 50 μl of 2 nM [35S]GTPγS (Amersham) are added and incubated for a further 30 minutes at room temperature and the assay-plate is centrifuged for 10 minutes at 3200 revolutions per minute. Bound activity was determined with a Wallac 1450 Microbeta Scintillation Counter (Wallac, Torku, Finland).
The inhibition of CGRP-induced incorporation of [^35S]GTPγS into membranes was determined in accordance with the above-described method.

[2] = target: T3, endogenous CGRP receptors in SK-N-MC cells (Homo sapiens, UniProt O60894+Q16602); assay: Action on the formation of cAMP in the human neuroblastoma cell line SK-N-MC; format: cell-based; settings: at 1 nM CGRP, compounds used in 10 μM concentrations
T3 construct: host or cells: SK-N-MC human neuroblastoma cells
T3 sequence (Q16602 23-461): as the sequence (Q16602 23-461) above
T3 sequence (O60894 27-148 partner): as the sequence (O60894 27-148 partner) above
Source text: The corresponding description is hereby introduced as a reference and is deemed to be part of the disclosure.

[3] = target: T4, recombinant human CGRP1 receptor (CRLR and RAMP1) (Homo sapiens, UniProt O60894+Q16602); assay: Inhibition of binding of 3-[125I]-iodohistidyl10-α-CGRP to the human CGRP1 receptor (SPA); settings: read-out: Inhibition in % of binding of 3-[125I]-iodohistidyl10 CGRP; at a concentration of 10 μM of the particular compound
T4 construct: purchased Euroscreen, Belgium ES420-M9; host or cells: CHO-K1 cell membranes
T4 sequence (Q16602 23-461): as the sequence (Q16602 23-461) above
T4 sequence (O60894 27-148 partner): as the sequence (O60894 27-148 partner) above
Protocol: (A) Investigation of the Inhibition of Binding of [^125I]-α-CGRP to the Human CGRP1 Receptor
Various CGRP receptor subtypes are known which in each case consist of a complex of CRLR (Calcitonin Receptor-Like Receptor), RAMP (Receptor-Associated Membrane Protein) and RCP (Receptor Component Protein).
Investigation of the inhibition of the binding of 3-[^125I]-iodohistidyl^10-α-CGRP is carried out on a human CGRP1 receptor, which is composed of the recombinant human constituents (Calcitonin Receptor-Like Receptor) CRLR and (Receptor-Associated Membrane Protein) RAMP1 (item no. ES420-M9, Euroscreen, Belgium).
The radioligand used is 3-[^125I]-iodohistidyl^10 Calcitonin Gene-Related Peptide (Amersham pharmacia biotech, code IM 184, 2000 Ci/mmol).
The binding studies are performed as SPA (scintillation proximity assay) batches with WGA beads (wheat germ agglutinin, Amersham pharmacia biotech, code: RPNQ 0001). The incubation buffer used is 50 mm tris pH 7.4 with 120 mM NaCl, 5 mM KCl and 5 mM MgCl2. 0.25 μg of protein of membrane suspension of CHO-K1 cells, 250 μg of beads and 10 μg of albumin (BSA) and the above-stated radioligand in a concentration of […] together with the compound according to the invention to be investigated in a concentration of 10 μM are introduced into each well of a microtitre plate.
After an incubation period of 90 minutes, radioactivity is measured in a Trilux detector (Wallac, Finland).
The inhibition of binding of 3-[^125I]-iodohistidyl^10 Calcitonin Gene-Related Peptide to the recombinant human CGRP1 receptor was determined in accordance with the method described above.

[4] = read-out: IC50 value for CGRP-antagonistic action, isolated guinea pig atria stimulated by h-α-CGRP

Molecule: Cc1cc(C2=C(c3ccc(S(C)(=O)=O)cc3)CC(CN(C)C)C2=O)ccc1F.Cl (stereo not drawn)
melting point: 95 to 98 °C (dec.)

Molecule: Cc1cccc(C2=C(c3ccc(S(C)(=O)=O)cc3)CC(CN(C)C)C2=O)c1.Cl (stereo not drawn)
melting point: 148 to 150 °C

Molecule: Cc1ccc(C2=C(c3ccc(S(C)(=O)=O)cc3)CC(CN(C)C)C2=O)cc1C.Cl (stereo not drawn)
melting point: 139 to 142 °C

Molecule: CN(C)CC1CC(c2ccc(S(C)(=O)=O)cc2)=C(c2ccc3ccccc3c2)C1=O.Cl (stereo not drawn)
melting point: 163 to 165 °C

Molecule: CN(C)CC1CC(c2ccc(S(C)(=O)=O)cc2)=C(c2ccc(O)cc2)C1=O.Cl (stereo not drawn)
melting point: 98 to 100 °C

Molecule: CCOc1cccc(C2=C(c3ccc(S(C)(=O)=O)cc3)CC(CN(C)C)C2=O)c1.Cl (stereo not drawn)
melting point: 149 to 151 °C

Molecule: CN(C)CC1CC(c2ccc(S(C)(=O)=O)cc2)=C(c2cccc(O)c2)C1=O.Cl (stereo not drawn) [Example 3, 5-Dimethylaminomethyl-2-(3-hydroxyphenyl)-3-(4-methanesulfonylphenyl)-cyclopent-2-enone, hydrochloride]
IC50 (CGRP1 receptors; [4]): 77 µM
inhibition at 12.5 µM [1]: 65.1%
melting point: 162 to 164 °C
Inhibition of cAMP formation [2]: 86%
inhibition at 10 µM [3]: 66%

Molecule: CN(C)CC1CC(c2ccc(S(C)(=O)=O)cc2)=C(c2ccc(S(C)(=O)=O)cc2)C1=O.Cl (stereo not drawn)
melting point: 157 to 159 °C

Molecule: CN(C)CC1CC(c2ccc(S(C)(=O)=O)cc2)=C(c2ccc3c(c2)OCO3)C1=O.Cl (stereo not drawn)
melting point: 149 to 152 °C

Molecule: CN(C)CC1CC(c2ccc(S(C)(=O)=O)cc2)=C(c2ccc(C(C)(C)C)cc2)C1=O.Cl (stereo not drawn)
melting point: 182 to 184 °C

Molecule: CN(C)CC1CC(c2ccc(S(C)(=O)=O)cc2)=C(c2cccc(F)c2)C1=O.Cl (stereo not drawn) [Example 5, 5-Dimethylaminomethyl-2-(3-fluorophenyl)-3-(4-methanesulfonylphenyl)-cyclopent-2-enone, hydrochloride]
IC50 (CGRP1 receptors; [4]): 25 µM
inhibition at 12.5 µM [1]: 62.4%
melting point: 154 to 158 °C
Inhibition of cAMP formation [2]: 82%
inhibition at 10 µM [3]: 58%

Molecule: CN(C)CC1CC(c2ccc(S(C)(=O)=O)cc2)=C(c2cc(F)cc(F)c2)C1=O.Cl (stereo not drawn) [Example 1, 2-(3,5-Difluorophenyl)-5-dimethylaminomethyl-3-(4-methanesulfonylphenyl)-cyclopent-2-enone, hydrochloride]
IC50 (CGRP1 receptors; [4]): 13 µM
inhibition at 12.5 µM [1]: 65.1%
Inhibition of cAMP formation [2]: 71%
inhibition at 10 µM [3]: 40%

Molecule: CC(C)c1cccc(C2=C(c3ccc(S(C)(=O)=O)cc3)CC(CN(C)C)C2=O)c1.Cl (stereo not drawn)
melting point: 131 to 133 °C

Molecule: COc1cccc(C2=C(c3ccc(S(C)(=O)=O)cc3)CC(CN(C)C)C2=O)c1.Cl (stereo not drawn) [Example 13, 5-Dimethylaminomethyl-3-(4-methanesulfonylphenyl)-2-(3-methoxyphenyl)-cyclopent-2-enone, hydrochloride]
IC50 (CGRP1 receptors; [4]): 32 µM
inhibition at 12.5 µM [1]: 63.9%
melting point: 154 to 157 °C
Inhibition of cAMP formation [2]: 88%
inhibition at 10 µM [3]: 60%

The next lines start with the values.

melting point: 160 to 163 °C
Molecule: CN(C)CC1CC(c2ccc(S(C)(=O)=O)cc2)=C(c2cc(Cl)cc(Cl)c2)C1=O.Cl (stereo not drawn)

melting point: 156 to 158 °C
Molecule: CN(C)CC1CC(c2ccc(S(C)(=O)=O)cc2)=C(c2cccc(Cl)c2)C1=O.Cl (stereo not drawn)

melting point: 152 to 154 °C
Molecule: CN(C)CC1CC(c2ccc(S(C)(=O)=O)cc2)=C(c2cccc(C(F)(F)F)c2)C1=O.Cl (stereo not drawn)

melting point: 127 to 129 °C
Molecule: Cc1ccc(C2=C(c3ccc(S(C)(=O)=O)cc3)CC(CN(C)C)C2=O)cc1.Cl (stereo not drawn)

Reduction in the increase in the frequency of beating of the atria stimulated by h-α-CGRP (in words) (CGRP1 receptors; concentrations of 30, 100 and 300 nM): concentration-dependent reduction
IC50 (CGRP1 receptors; validation experiment, isolated guinea pig atria, read-out: IC50 (semimaximal action), reduction of h-α-CGRP-stimulated increase in frequency of beating): 0.019 µM
Molecule: h-α-CGRP(8-37): human α-CGRP(8-37), CGRP1-antagonistic fragment used to validate the guinea pig atrium model [reference compound]

inhibition at 10 µM [3]: 26%
Molecule: CN(C)CC1CC(c2ccc(S(C)(=O)=O)cc2)=C(c2ccc(C(C)(C)C)cc2)C1O (stereo not drawn) [Example 21, 2-(4-tert-Butylphenyl)-5-dimethylaminomethyl-3-(4-methanesulfonylphenyl)-cyclopent-2-enol, hydrochloride]
